IC50 and IC90 data for 31 molecules are collected here from PubChem BioAssay AID434987 (Southern Research Specialized Biocontainment Screening …, 2010).

Activity calls are given as the source filed them. The rule behind the calls is not given here. A value given as a limit tells only on which side of the number the result lay.

In the assay the test system is M. tuberculosis H37Rv growth inhibition with meropenem. The assay is described as follows: dose response, H37Rv, with and without meropenem (AID 434987).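 Note: growth over 7 days at 37 °C before Alamar Blue read on day 9.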
Where [1] appears, read: M. tuberculosis H37Rv growth inhibition, measured here: IC50 without meropenem.
[2] abbreviates: M. tuberculosis H37Rv growth inhibition, measured here: IC90 without meropenem.
[3] abbreviates: measured here: IC90 with meropenem.

In general, IC50 refers to the point on the concentration scale where inhibition reaches its midpoint. As usually defined, the IC90 is the point of the concentration-response curve where the effect stands at 90%. Read a high IC90 as weaker potency. On to `C/C(=N/NC(=O)c1cccs1)c1c(C)[nH]n(-c2nc3ccccc3s2)c1=O`, for which the IC50 is 1.44 µM (inactive). For the same molecule, the IC50 under setting [1] came to 1.52 µM. Under setting [2], the IC90 was 1.69 µM. The IC90 under setting [3] came out at 1.58 µM.

Take `CCc1nc2scc(-c3cccs3)c2c(=O)o1`: the IC50 was > 100 µM (inactive). Under setting [1], the IC50 was greater than 100 µM. The molecule also had an IC90 under setting [2] greater than 100 µM. Also, the IC90 under setting [3] is greater than 100 µM.

For the molecule `COc1ccc(C[C@H](C)NC[C@@H](O)c2ccc(O)c(NC=O)c2)cc1`, the IC50 was > 100 µM (inactive). Under setting [1], this molecule came in with an IC50 greater than 100 µM. Moreover, the IC90 under setting [2] is greater than 100 µM. Under setting [3], this molecule displayed a concentration for an effect of 90% (IC90) greater than 100 µM.

Consider `CC1CC(C)(C)n2c(O)c(N=NC(N)=S)c3cccc1c32` (centres undefined), for which the IC50 is > 100 µM (inactive). The molecule also had an IC50 under setting [1] greater than 100 µM. Further, the IC90 under setting [2] is greater than 100 µM. This molecule also registered an IC90 under setting [3] greater than 100 µM.

Take `O=C(NC1CCCCC1)C1CCN(c2nccs2)CC1`: the IC50 is 40.2 µM. Besides, the IC50 under setting [1] is greater than 100 µM. The molecule further gave an IC90 under setting [2] greater than 100 µM. This molecule yielded an IC90 under setting [3] greater than 100 µM.

As to `CCC1(c2ccc(Cl)cc2)NC(=S)N(c2ccc(C)cc2)N1` (centres undefined), the IC50 was > 100 µM (inactive). The concentration for half-maximal inhibition (IC50) under setting [1] was greater than 100 µM. Under setting [2], this molecule registered a 90% effect concentration (IC90) greater than 100 µM. The same molecule registered a 90% effect concentration (IC90) under setting [3] greater than 100 µM.

As for `CN(C)c1ccc(/C=N/NC(=O)c2cc(-c3ccc4c(c3)OCO4)n[nH]2)cc1`, the IC50 was > 100 µM (inactive). The molecule also showed an IC50 under setting [1] greater than 100 µM. Under setting [2], this molecule displayed an IC90 greater than 100 µM. Besides, the concentration for an effect of 90% (IC90) under setting [3] was greater than 100 µM.

As to `CCCCN(CC)S(=O)(=O)c1ccc(C(=O)Nc2nnc(CSC)o2)cc1`, the IC50 was 17.2 µM (inactive). The molecule further came in with an IC50 under setting [1] of 25.2 µM. Besides, the IC90 under setting [2] is greater than 100 µM. Moreover, the IC90 under setting [3] was 31.7 µM.

With `CC1(C)Cc2c(C#N)c(SCc3ccccc3)nc(N3CCOCC3)c2CO1`, the IC50 is > 100 µM (inactive). Further, the IC50 under setting [1] is greater than 100 µM. The molecule also returned a 90% effect concentration (IC90) under setting [2] greater than 100 µM. This molecule also yielded a 90% effect concentration (IC90) under setting [3] greater than 100 µM.

Regarding `CCOc1ccc(S(=O)(=O)N(C(=O)c2ccco2)c2cc3sc(=O)oc3c3ccccc23)cc1`, the IC50 is 44.7 µM (inactive). Under setting [1], this molecule registered an IC50 of 41.8 µM. Under setting [2], this molecule displayed an IC90 of 45.1 µM. This molecule also returned an IC90 under setting [3] of 46.9 µM.

Consider `Cc1cc(C(=O)CN2C(=O)NC(c3ccccc3)(c3ccccc3)C2=O)c(C)n1Cc1ccccc1`, for which the IC50 was > 100 µM (inactive). In addition, the IC50 under setting [1] is greater than 100 µM. This molecule also registered an IC90 under setting [2] greater than 100 µM. This molecule also showed an IC90 under setting [3] greater than 100 µM.

For `CCCCNC(=O)c1onc(CSc2ccccc2C)c1C(=O)O`, the IC50 was 45.3 µM (inactive). The molecule also displayed an IC50 under setting [1] of 81.1 µM. The molecule further had an IC90 under setting [2] greater than 100 µM. This molecule gave an IC90 under setting [3] of 50.6 µM.

Regarding `CCOc1ccc2nc(SC3CC(=O)N(c4ccc(OC)cc4)C3=O)sc2c1` (centres undefined), the IC50 was > 100 µM (inactive). Further, the half-inhibitory concentration (IC50) under setting [1] was greater than 100 µM. For the same molecule, the IC90 under setting [2] is greater than 100 µM. The molecule also came in with an IC90 under setting [3] greater than 100 µM.

Turning to `Cc1cc(=O)n2c(-c3ccccc3C)n[nH]c2n1`, the IC50 is 51 µM (inactive). Besides, the IC50 under setting [1] worked out at 62.4 µM. The 90% effect concentration (IC90) under setting [2] was greater than 100 µM. The IC90 under setting [3] is greater than 100 µM.

In the case of `CCOC(=O)C1CCCN(c2ccc(NC(=O)c3snc4c(=O)[nH]cnc34)cc2)C1` (centres undefined), the IC50 is 12.7 µM. Under setting [1], this molecule displayed an IC50 of 59.4 µM. The IC90 under setting [2] was greater than 100 µM. Under setting [3], this molecule showed an IC90 greater than 100 µM.

Take `Nc1c(C(=O)NC2CC2)c2nc3ccccc3nc2n1-c1ccc2c(c1)OCO2`: the IC50 was 95 µM (inactive). The IC50 under setting [1] amounted to 88.5 µM. Also, the IC90 under setting [2] is greater than 100 µM. In addition, the IC90 under setting [3] was greater than 100 µM.

Regarding `CCOC(=O)c1cc(-c2ccc(C)cc2)n(CCC(=O)N2CCN(c3ccccn3)CC2)c1C`, the IC50 is 69.5 µM (inactive). The molecule further showed a half-inhibitory concentration (IC50) under setting [1] of 89.4 µM. The IC90 under setting [2] was greater than 100 µM. Under setting [3], this molecule registered an IC90 greater than 100 µM.

Regarding `COc1ccc(C2(CNC(=O)c3cc([N+](=O)[O-])cc([N+](=O)[O-])c3)CCCC2)cc1OC`, the IC50 is 1.43 µM (inactive). The molecule further gave an IC50 under setting [1] of 1.86 µM. The molecule further displayed an IC90 under setting [2] of 3 µM. Also, the IC90 under setting [3] came to 1.61 µM.

Regarding `C/C(=N\OCC(=O)Nc1nc2ccccc2s1)c1ccccc1`, the IC50 is 13.1 µM. The IC50 under setting [1] is 47.6 µM. This molecule also had an IC90 under setting [2] of 54.1 µM. This molecule had an IC90 under setting [3] of 35.6 µM.

Consider `c1ccc(-c2n[nH]c3c2CCC3)cc1`, for which the IC50 was 3.73 µM. Under setting [1], this molecule had a concentration for half-maximal inhibition (IC50) of 14.4 µM. The IC90 under setting [2] came out at 32.4 µM. For the same molecule, the IC90 under setting [3] is 46.3 µM.

For the molecule `COc1cc(/C=C/C(=O)OCC(=O)Nc2cc(C)c(C)cc2[N+](=O)[O-])ccc1O`, the IC50 is 43 µM (inactive). The molecule also gave an IC50 under setting [1] of 92.8 µM. Under setting [2], this molecule came in with an IC90 greater than 100 µM. In addition, under setting [3], the IC90 was greater than 100 µM.

In the case of `CCCCCC(=O)Nc1cccc(C2=NOC3(C2)C[C@@H](C(N)=O)N(C(=O)CC(c2ccccc2)c2ccccc2)C3)c1` (some centres undefined), the IC50 is 51.6 µM (inactive). Also, the IC50 under setting [1] was greater than 100 µM. Also, under setting [2], the IC90 is greater than 100 µM. The same molecule registered an IC90 under setting [3] greater than 100 µM.

As to `CN(C)c1ccc(N=Nc2cccc3ccoc23)cc1`, the IC50 is > 100 µM (inactive). Under setting [1], this molecule yielded an IC50 greater than 100 µM. Further, the IC90 under setting [2] is greater than 100 µM. The IC90 under setting [3] was greater than 100 µM.

On to `COc1ccc(Cl)cc1NC(=O)NNC(=O)c1ccccn1`, for which the IC50 was 41.1 µM (inactive). This molecule also displayed an IC50 under setting [1] greater than 100 µM. This molecule showed an IC90 under setting [2] greater than 100 µM. Also, under setting [3], the 90% effect concentration (IC90) was greater than 100 µM.

In the case of `COCCNC(C(=O)Nc1ccc(C)cc1[N+](=O)[O-])c1ccccc1` (centres undefined), the IC50 was 17.2 µM. In addition, the IC50 under setting [1] is 49.1 µM. This molecule also registered a concentration for an effect of 90% (IC90) under setting [2] greater than 100 µM. This molecule registered a concentration for an effect of 90% (IC90) under setting [3] greater than 100 µM.

In the case of `COc1ccccc1NC(=O)c1cnc(Nc2ccccc2OC)c2ccccc12`, the IC50 is 37.2 µM. This molecule also returned an IC50 under setting [1] greater than 100 µM. For the same molecule, under setting [2], the IC90 was greater than 100 µM. The same molecule displayed an IC90 under setting [3] greater than 100 µM.

Turning to `CCSc1nnc(NC(=O)Cn2cnc3ccccc3c2=O)s1`, the IC50 is > 100 µM (inactive). For the same molecule, the IC50 under setting [1] is greater than 100 µM. Under setting [2], this molecule showed a concentration for an effect of 90% (IC90) greater than 100 µM. This molecule also had an IC90 under setting [3] greater than 100 µM.

Consider `CCCCOc1ccccc1NC(=O)c1ccco1`, for which the IC50 is > 100 µM (inactive). Under setting [1], this molecule had an IC50 greater than 100 µM. Also, the IC90 under setting [2] was greater than 100 µM. Moreover, the IC90 under setting [3] was greater than 100 µM.

Consider `N#Cc1ccc(NCC(=O)Nc2ccc(S(=O)(=O)N3CCCCC3)cc2)cc1`, for which the IC50 is > 100 µM (inactive). Further, the IC50 under setting [1] is greater than 100 µM. The molecule further had an IC90 under setting [2] greater than 100 µM. Also, under setting [3], the IC90 is greater than 100 µM.

Consider `Cc1nn(Cc2ccc(Cl)cc2)c(C)c1NC(=O)CSc1nc2c(c(C(F)(F)F)n1)CCc1ccccc1-2`, for which the IC50 is > 100 µM (inactive). The same molecule showed an IC50 under setting [1] greater than 100 µM. For the same molecule, the IC90 under setting [2] was greater than 100 µM. The molecule further returned an IC90 under setting [3] greater than 100 µM.

On to `CN(C)CC[C@@H](c1ccc(Br)cc1)c1ccccn1`, for which the IC50 was > 100 µM (inactive). Moreover, under setting [1], the IC50 is greater than 100 µM. This molecule came in with an IC90 under setting [2] greater than 100 µM. For the same molecule, the IC90 under setting [3] is greater than 100 µM.
